“Also recorded” adds a separate entry of the source.
Assay: Treatment of patients with Multiple Sclerosis (case histories and patient series)
Assay type: in vivo, human
Details: for Contribution of the component to the therapeutic effect in MS: added to the antidepressant regime
Procedure: Over 100 other patients have done well on a similar regime, although some have been given other antidepressants either of the traditional tricyclic class, such as amitriptyline or imipramine, or the newer specialist serotonin uptake inhibitors or monoamine oxidase inhibitors. Four particular instances are given in the appendix. […] The doses of LPA have also varied from about 100 mg to up to 5 g per day, but best results are obtained with doses in the region of 500-2000 mg/day. The doses of antidepressants (with the proviso that minimum effective and maximum safe levels are determined according to the drug), lie broadly in the range 10 mg to 200 mg per day.
A specific example of the use of the treatment is 70 mgs (half the therapeutic starting dose for depression) of lofepramine taken each morning with 500 mgs of L-phenylalanine, and 500 mgs of L-phenylalanine taken mid afternoon. For patients with the regular MS attacks of chronic progressive MS it is desirable to include an 8-10 week course of 1000 micrograms of hydroxocobalamin (intra muscular) per week at the start of treatment and then 1000 micrograms every ten days thereafter.

| Molecule | Contribution of the component to the therapeutic effect in MS | Comparative therapeutic result among antidepressants in MS treatment (antidepressant combined with neurotransmitter precursor) |
| --- | --- | --- |
| N[C@@H](Cc1ccccc1)C(=O)O [L-phenylalanine (LPA), L-phenylalanine] | contributes to the therapeutic effect | – |
| CN(CCCN1c2ccccc2CCc2ccccc21)CC(=O)c1ccc(Cl)cc1 [lofepramine] | – | best results; also recorded: Most have done best |
| vitamin B12 | does have a beneficial effect; also recorded: the treatment works best | – |
